# According to patent US12529032B2, “Methods and culture substrates for controlled induction of biomimetic neural tissues comprising singular rosette structures” (priority 2017, dated 2026):
# Columns and labels:
# [1] = tested on: spinal neuroepithelial tissues; assay: Singular neural rosette emergence in micropatterned spinal neuroepithelial tissues, with ROCK inhibition; assay type: cell-based, human; conditions: for effect on ability to form neural rosettes: 10 μM ROCK inhibitor, 5 days, spinal neuroepithelial tissues, dihydrochloride
# Excerpt: (§1) NEC biomechanical properties vary by regional phenotype and affect rosette emergence behavior: The inefficient induction of singular rosette emergence in spinal neuroepithelial tissues under micropatterning conditions that were highly efficient for forebrain NECs prompted a re-examination of the optimal circular micropattern size for each regional phenotype. Moreover, we investigated how altering the biomechanical properties of each regional neuroepithelial tissue, by partial inhibition of the Rho-associated protein kinase (ROCK), would affect which micropattern size induced optimal singular rosette emergence. D-1 hESCs and 72-hr caudalized NMPs were seeded at 100,000 and 250,000 cells/cm^2, respectively, onto 150 (0.018 mm^2), 180 (0.025 mm^2), 200 (0.031 mm^2), 250 (0.049 mm^2), and 400 μm (0.126 mm^2) diameter circular micropattern arrays to generate forebrain and spinal neuroepithelial tissues (FIGS. 6A-6B and 6D-6E). […] Similar to our previous results, the efficiency of singular neural rosette emergence for forebrain tissues peaked at 85% on 250 μm (0.049 mm^2) diameter circular micropatterns (FIG. 6C). However, in the presence vs. absence of ROCK inhibitor, the efficiency curve shifted leftward inducing singular rosette emergence in 75% vs. 0% of 150 μm (0.018 mm^2), 89% vs. 50% of 180 μm (0.025 mm^2), 87% vs. 58% of 200 μm (0.031 mm^2), and 11% vs. 85% of 250 μm (0.049 mm^2) diameter forebrain neuroepithelial tissues, respectively.
# Generation of Micropatterned Spinal Cord Neuroepithelial Tissues: Caudalization of hPSC-derived cultures to generate micropatterned neuroepithelial tissues of the cervical/thoracic spinal cord was performed using a modified version of the deterministic HOX patterning protocol (36). Human PSCs were dissociated with Accutase and seeded onto MATRIGEL™-coated, 6-well TCPS plates at 150,000 cells/cm^2 in E8 media comprising 10 μM ROCK inhibitor. […]
# [2] = tested on: forebrain neuroepithelial tissues; assay: Singular neural rosette emergence in micropatterned forebrain neuroepithelial tissues, with ROCK inhibition; assay type: cell-based, human; conditions: for singular rosette emergence efficiency: presence of 10 μM ROCK inhibitor, 5 days
# Excerpt: as §1
# Generation of Micropatterned Forebrain Neural Tissues: WA09 or HUES3 Hb9::GFP hESCs were maintained in Essential 8 medium (E8) on MATRIGEL™-coated TCPS plates and routinely passaged with Versene (Thermo Fisher). NEC derivation from hPSCs was performed in accordance with the E6 protocol (23). To generate NEC-derived micropatterned tissues at various stages of neural derivation, cells were first rinsed with PBS, dissociated with Accutase (Thermo Fisher) for 5 minutes at 37° C., and collected via centrifugation at 1000 rpm for 5 minutes. Singularized NECs were re-suspended in E6 media with 10 μM ROCK inhibitor (Y27632; R&D Systems) and seeded onto micropatterned substrates at 75,000 cells/cm^2 in 2 mL of media per well. The following day the media was replaced with 2 mL of E6 media and 50% media changes were performed daily thereafter. Alternatively, to generate hPSC-derived micropatterned tissues, hPSC cultures at ˜85% confluency were rinsed with PBS, dissociated with Accutase for 5 minutes at 37° C. and collected via centrifugation at 1000 rpm for 5 minutes. Singularized hPSCs were then suspended in E8 media with 10 μM ROCK inhibitor and seeded onto micropatterned substrates at 100,000 cells/cm^2 in 2 mL of media per well. The following day the media was replaced with 2 mL of E6 media and 50% media changes were performed daily thereafter.
# Immunocytochemistry and Microscopy: Micropatterned tissues were rinsed with PBS and fixed with 4% paraformaldehyde (PFA, Sigma Aldrich) in PBS for 10 minutes at room temperature. Following three rinses with phosphate buffered saline (PBS), the micropatterned substrates were blocked and permeabilized in PBS with 5% Donkey Serum and 0.3% Triton X-100 (TX100; Thermo Fisher) (PBS-DT) for 1 hour at room temperature. Next, the tissues were incubated with primary antibodies diluted in PBS-DT for 2 hours at room temperature or overnight at 4° C. Then, the substrates were rinsed in PBD-DT 3 times for 15 minutes each. Secondary antibodies were diluted in PBS-DT and exposed to the tissues for 1 hour at room temperature. Tissue nuclei were subsequently stained with 300 nM 4′,6-diamidino-2-phenylindoldihydrochloride (DAPI, Sigma Aldrich) for 30 minutes followed by three 15 minute PBS washes. The micropatterned substrates were mounted on glass coverslips using Prolong Gold Antifade Reagent (Thermo Fisher). […]
compound,measurement,setting,value
"C[C@@H](N)[C@H]1CC[C@H](C(=O)Nc2ccncc2)CC1.Cl.Cl [ROCK inhibitor, (+)-(R)-trans-4-(1-aminoethyl)-N-(4-pyridyl)cyclohexanecarboxamide dihydrochloride]",effect on ability to form neural rosettes,[1],completely abolished their ability form neural rosettes
same,effect on ability to form neural rosettes,[1]; listed as Rock inhibitor,fully eliminate
same,NEC density in presence vs. absence of ROCK inhibitor,"[1]; spinal tissues of a given micropattern size, 10 μM",did not vary significantly
same,effect on rosette formation capacity,"[2]; 10 μM Rock inhibitor, forebrain NECs",only partially diminish
same,NEC density in presence vs. absence of ROCK inhibitor,"[2]; forebrain tissues of a given micropattern size, 10 μM",did not vary significantly
same,singular rosette emergence efficiency,[2]; 150 μm (0.018 mm^2) diameter circular micropatterns,75%
same,singular rosette emergence efficiency,[2]; 180 μm (0.025 mm^2) diameter circular micropatterns,89%
same,singular rosette emergence efficiency,[2]; 200 μm (0.031 mm^2) diameter circular micropatterns,87%
same,singular rosette emergence efficiency,[2]; 250 μm (0.049 mm^2) diameter circular micropatterns,11%
